Results published in PubChem BioAssay AID330 (DTP/NCI, 2004).
Values joined by “and” are separate entries in the source; they are usually repeats but may differ in a detail not shown here. Identical values can stand only once. Inconclusive results and toxic doses are left out.

System: P388 leukemia ip, CD2F1 mice, survival T/C
Experiment: NCI In Vivo Anticancer Drug Screen. Data for tumor model P388 Leukemia (intraperitoneal) in CD2F1 (CDF1) mice
Settings: endpoint: median survival time, higher = longer survival
How it was run: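 Mice carrying the transplanted tumor received test compound or vehicle. Survival was recorded in each group, and the value is the treated-group measurement divided by that of the vehicle-treated control group.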

[1] = dose: 100.0 mg/kg/injection, schedule: Q04DX003 (ip), vehicle: saline with Tween-80
[2] = dose: 200.0 mg/kg/injection, schedule: Q04DX003 (ip), vehicle: saline with Tween-80
[3] = dose: 400.0 mg/kg/injection, schedule: Q04DX003 (ip), vehicle: saline with Tween-80
[4] = dose: 3.12 mg/kg/injection, schedule: Q01DX005 (ip), vehicle: saline
[5] = dose: 6.25 mg/kg/injection, schedule: Q01DX005 (ip), vehicle: saline
[6] = dose: 12.5 mg/kg/injection, schedule: Q01DX005 (ip), vehicle: saline
[7] = dose: 50.0 mg/kg/injection, schedule: Q01DX009 (ip), vehicle: saline with Tween-80
[8] = dose: 100.0 mg/kg/injection, schedule: Q01DX009 (ip), vehicle: saline with Tween-80
[9] = dose: 200.0 mg/kg/injection, schedule: Q01DX009 (ip), vehicle: saline with Tween-80
[10] = dose: 25.0 mg/kg/injection, schedule: Q01DX009 (ip), vehicle: saline with Tween-80
[11] = dose: 60.0 mg/kg/injection, schedule: Q01DX005 (ip), vehicle: saline with Tween-80
[12] = dose: 120.0 mg/kg/injection, schedule: Q01DX005 (ip), vehicle: saline with Tween-80
[13] = dose: 400.0 mg/kg/injection, schedule: Q01DX009 (ip), vehicle: saline with Tween-80

## COC(=O)c1nc(OC)nc(OC)c1C#CCOC1CCCCO1 (configuration not stated)
dose: 12.5 mg/kg/injection, schedule: Q01DX009 (ip), vehicle: distilled water + Tween-80
  T/C: 92 % of control
dose: 25.0 mg/kg/injection, schedule: Q01DX009 (ip), vehicle: distilled water + Tween-80
  T/C: 108 % of control
dose: 50.0 mg/kg/injection, schedule: Q01DX009 (ip), vehicle: distilled water + Tween-80
  T/C: 94 % of control
dose: 100.0 mg/kg/injection, schedule: Q01DX009 (ip), vehicle: distilled water + Tween-80
  T/C: 94 % of control

## O=C1CCCC(=O)OCCOCCOCCOCCOCCO1
dose: 12.5 mg/kg/injection, schedule: Q01DX009 (ip), vehicle: saline
  T/C: 104 % of control and 108 % of control
dose: 25.0 mg/kg/injection, schedule: Q01DX009 (ip), vehicle: saline
  T/C: 104 % of control and 95 % of control
dose: 50.0 mg/kg/injection, schedule: Q01DX009 (ip), vehicle: saline
  T/C: 104 % of control and 108 % of control and 120 % of control
dose: 100.0 mg/kg/injection, schedule: Q01DX009 (ip), vehicle: saline
  T/C: 105 % of control
dose: 200.0 mg/kg/injection, schedule: Q01DX009 (ip), vehicle: saline
  T/C: 105 % of control

## O=S(=O)(O)O.[NH-]C1CCCC1[NH-].[Pt+2] (configuration not stated)
dose: 6.25 mg/kg/injection, schedule: Q04DX002 (ip), vehicle: saline
  T/C: 177 % of control and 195 % of control
dose: 12.5 mg/kg/injection, schedule: Q04DX002 (ip), vehicle: saline
  T/C: 180 % of control and 202 % of control
dose: 12.5 mg/kg/injection, schedule: Q04DX002 (ip), vehicle: suspension in saline
  T/C: 191 % of control
dose: 25.0 mg/kg/injection, schedule: Q04DX002 (ip), vehicle: saline
  T/C: 198 % of control and 194 % of control

## COc1ccc(-c2nc3ccccc3[nH]2)cc1
dose: 50.0 mg/kg/injection, schedule: Q04DX003 (ip), vehicle: saline with Tween-80
  T/C: 103 % of control
[1]
  T/C: 106 % of control
[2]
  T/C: 102 % of control
[3]
  T/C: 120 % of control

## CC([NH-])CC(C)[NH-].[I][Pt+2][I] (configuration not stated)
dose: 12.5 mg/kg/injection, schedule: Q04DX002 (ip), vehicle: saline with Tween-80
  T/C: 169 % of control and 150 % of control
dose: 25.0 mg/kg/injection, schedule: Q04DX002 (ip), vehicle: saline with Tween-80
  T/C: 163 % of control and 157 % of control

## O=C(O)c1c[nH]c2cc(OCc3ccc(F)cc3)ccc2c1=O
dose: 100.0 mg/kg/injection, schedule: Q04DX003 (ip), vehicle: saline
  T/C: 88 % of control
dose: 200.0 mg/kg/injection, schedule: Q04DX003 (ip), vehicle: saline
  T/C: 93 % of control
dose: 400.0 mg/kg/injection, schedule: Q04DX003 (ip), vehicle: saline
  T/C: 90 % of control

## NCCOc1c2occc2cc2ccc(=O)oc12
dose: 100.0 mg/kg/injection, schedule: Q01DX001 (ip), vehicle: saline
  T/C: 110 % of control

## [Cl][Cu][Cl].c1ccc2[nH]cnc2c1.c1ccc2[nH]cnc2c1
dose: 6.25 mg/kg/injection, schedule: Q01DX009 (ip), vehicle: Klucel (hydroxypropylcellulose) (HPC)
  T/C: 113 % of control
dose: 12.5 mg/kg/injection, schedule: Q01DX009 (ip), vehicle: Klucel (hydroxypropylcellulose) (HPC)
  T/C: 104 % of control
dose: 25.0 mg/kg/injection, schedule: Q01DX009 (ip), vehicle: Klucel (hydroxypropylcellulose) (HPC)
  T/C: 100 % of control

## O=[N+]([O-])c1ccc(/C=N/Nc2nnc(-c3ccccc3)c(-c3ccccc3)n2)o1
dose: 12.5 mg/kg/injection, schedule: Q01DX005 (ip), vehicle: saline with Tween-80
  T/C: 106 % of control
dose: 25.0 mg/kg/injection, schedule: Q01DX005 (ip), vehicle: saline with Tween-80
  T/C: 103 % of control
dose: 50.0 mg/kg/injection, schedule: Q01DX005 (ip), vehicle: saline with Tween-80
  T/C: 93 % of control and 96 % of control
dose: 200.0 mg/kg/injection, schedule: Q01DX005 (ip), vehicle: saline with Tween-80
  T/C: 88 % of control

## C=C(Cl)C(=NC(C)(C)C)Nc1ccccc1C
dose: 1.56 mg/kg/injection, schedule: Q01DX005 (ip), vehicle: saline
  T/C: 100 % of control
dose: 3.12 mg/kg/injection, schedule: Q01DX005 (ip), vehicle: Klucel (hydroxypropylcellulose) (HPC)
  T/C: 103 % of control
[4]
  T/C: 102 % of control
dose: 6.25 mg/kg/injection, schedule: Q01DX005 (ip), vehicle: Klucel (hydroxypropylcellulose) (HPC)
  T/C: 107 % of control and 117 % of control
[5]
  T/C: 109 % of control and 118 % of control
dose: 12.5 mg/kg/injection, schedule: Q01DX005 (ip), vehicle: Klucel (hydroxypropylcellulose) (HPC)
  T/C: 117 % of control
[6]
  T/C: 108 % of control
dose: 25.0 mg/kg/injection, schedule: Q01DX005 (ip), vehicle: Klucel (hydroxypropylcellulose) (HPC)
  T/C: 121 % of control

## CC[N+](C)(C)c1ccc(C(=C2C=CC(=[N+](C)C)C=C2)c2ccc(N(C)C)cc2)cc1
[4]
  T/C: 100 % of control
[5]
  T/C: 100 % of control
[6]
  T/C: 104 % of control

## N#CC(C#N)=CN
[7]
  T/C: 94 % of control
[8]
  T/C: 103 % of control
[9]
  T/C: 103 % of control

## CNC(=S)NCOCCOC(C)=O
dose: 60.0 mg/kg/injection, schedule: Q01DX005 (ip), vehicle: saline
  T/C: 98 % of control
dose: 120.0 mg/kg/injection, schedule: Q01DX005 (ip), vehicle: saline
  T/C: 102 % of control
dose: 240.0 mg/kg/injection, schedule: Q01DX005 (ip), vehicle: saline
  T/C: 102 % of control

## CC(C)(C)c1cc(C2C(=O)c3ccccc3C2=O)cc(C(C)(C)C)c1O
dose: 100.0 mg/kg/injection, schedule: Q04DX002 (ip), vehicle: saline
  T/C: 110 % of control
dose: 200.0 mg/kg/injection, schedule: Q04DX002 (ip), vehicle: saline
  T/C: 107 % of control
dose: 400.0 mg/kg/injection, schedule: Q04DX002 (ip), vehicle: saline
  T/C: 107 % of control

## COc1cc2c(c(OC)c1OC)-c1cc3c(cc1C(OC1OC(COC(C)=O)C(OC(C)=O)C(OC(C)=O)C1OC(C)=O)C1COC(=O)C1C2)OCO3 (configuration not stated)
dose: 18.75 mg/kg/injection, schedule: Q01DX005 (ip), vehicle: Klucel (hydroxypropylcellulose) (HPC)
  T/C: 93 % of control
dose: 37.5 mg/kg/injection, schedule: Q01DX005 (ip), vehicle: Klucel (hydroxypropylcellulose) (HPC)
  T/C: 93 % of control
dose: 75.0 mg/kg/injection, schedule: Q01DX005 (ip), vehicle: Klucel (hydroxypropylcellulose) (HPC)
  T/C: 93 % of control
dose: 150.0 mg/kg/injection, schedule: Q01DX005 (ip), vehicle: Klucel (hydroxypropylcellulose) (HPC)
  T/C: 88 % of control

## CC(C)c1ccccc1S(=O)c1ccccc1C(C)(C)O (configuration not stated)
dose: 50.0 mg/kg/injection, schedule: Q01DX009 (ip), vehicle: Klucel (hydroxypropylcellulose) (HPC)
  T/C: 98 % of control
dose: 100.0 mg/kg/injection, schedule: Q01DX009 (ip), vehicle: Klucel (hydroxypropylcellulose) (HPC)
  T/C: 102 % of control
dose: 200.0 mg/kg/injection, schedule: Q01DX009 (ip), vehicle: Klucel (hydroxypropylcellulose) (HPC)
  T/C: 95 % of control

## Cc1cc(Cl)c(C)c(Cl)c1Cl
[1]
  T/C: 95 % of control
[2]
  T/C: 95 % of control
[3]
  T/C: 91 % of control

## CSCC1(CCO)OCCO1
[10]
  T/C: 100 % of control
[7]
  T/C: 94 % of control
[8]
  T/C: 94 % of control

## Cc1cc(N2CCOCC2)n2c(nc3ccccc32)c1C#N
[11]
  T/C: 96 % of control
[12]
  T/C: 100 % of control

## CC(=O)OC1CC2C(C)(C)C(=O)C=CC2(C)C2CCC3(C)C(c4ccoc4)OC(=O)C4OC43C12C (configuration not stated)
[8]
  T/C: 90 % of control
[1]
  T/C: 109 % of control
[9]
  T/C: 95 % of control
[2]
  T/C: 100 % of control
[13]
  T/C: 100 % of control
[3]
  T/C: 90 % of control

## O=C(Cc1nc2cc(Cl)c(Cl)cc2nc1CC(=O)c1ccncc1)c1ccncc1
[11]
  T/C: 93 % of control
[12]
  T/C: 90 % of control
dose: 240.0 mg/kg/injection, schedule: Q01DX005 (ip), vehicle: saline with Tween-80
  T/C: 90 % of control

## O=C1C=CC(=O)C(c2ccc(Cl)cc2)=C1
dose: 12.5 mg/kg/injection, schedule: Q01DX009 (ip), vehicle: saline with Tween-80
  T/C: 98 % of control
[10]
  T/C: 90 % of control
[8]
  T/C: 90 % of control

## Clc1ccc(CNc2ncnc3[nH]ncc23)cc1Cl
[1]
  T/C: 104 % of control
[2]
  T/C: 100 % of control
[3]
  T/C: 95 % of control

## C[n+]1c(-c2ccc(/C=N/Nc3n[nH]c(=S)n3/N=C/c3ccc(-c4cn5ccsc5[n+]4C)cc3)cc2)cn2ccsc21
dose: 1.87 mg/kg/injection, schedule: Q01DX005 (ip), vehicle: saline with Tween-80
  T/C: 101 % of control

## CSc1nc(N)nc2c1ncn2C1OC(CO)C(O)C1O (configuration not stated)
[8]
  T/C: 90 % of control
dose: 100.0 mg/kg/injection, schedule: Q04DX003 (ip), vehicle: saline sonified
  T/C: 100 % of control
[9]
  T/C: 86 % of control
dose: 200.0 mg/kg/injection, schedule: Q04DX003 (ip), vehicle: saline sonified
  T/C: 100 % of control
[13]
  T/C: 100 % of control
dose: 400.0 mg/kg/injection, schedule: Q04DX003 (ip), vehicle: saline sonified
  T/C: 95 % of control
